Data from PubChem BioAssay AID1918999 (Molecular Pharmacology Branch, DTP, NCI, 2023).

Tested on: 556581-035-R-J1-PDC complex spheroid growth
Test: Anticancer human tumor 556581-035-R-J1-PDC patient-derived ovarian carcinoma cell line growth inhibition [AhR]
Conditions: for IC50: curve of first compound; for viability, T/C: stronger effect = lower value
Text: Multicellular complex tumor spheroid response to aryl hydrocarbon receptor antagonists in combination with a variety of drugs and investigational agents in selected tumor cell lines
The current study was undertaken to assess response to aryl hydrocarbon receptor antagonists in combination with standard-of-care drugs and investigational agents in solid tumor complex spheroid models. Complex spheroids include a stromal component modeled by human endothelial cells (HUVEC) and fibroblasts modeled by human mesenchymal stem cells (MSCs). The concentration ranges selected for each drug and investigational agent were based upon clinically achievable concentrations if the clinical Cmax of the agent was known.
Compounds. The drugs and investigational agents: BAY 2416964 (NSC825713), GNF351 (NSC835774), CH-223191 (NSC835775), CPI-455 (NSC825282), aza-TdCyd (NSC777586), decitabine (NSC127716), belinostat (NSC758774), entinostat (NSC756642), pevonedistat (NSC761192), tazemetostat (NSC777109), talazoparib (NSC765396), olaparib (NSC753686), selinexor (NSC780203), nedisertib (M3814, NSC802822), bortezomib (NSC756655), venetoclax (NSC766270), doxorubicin (NSC123127), elimusertib (BAY189344, NSC800525), ceralasertib (AZD6738, NSC777638), TAK-243 (NSC785004), alisertib (NSC759677), etoposide (NSC141540), topotecan (NSC609699), eribulin (NSC707389), gemcitabine (NSC613327), carboplatin (NSC241240), cisplatin (NSC119875), and SN-38 (NSC673596) were obtained from the National Cancer Institute (NCI) Developmental Therapeutics Program Chemical Repository (32). The FDA-approved anticancer drug set is available from the Developmental Therapeutics Program at https://dtp.cancer.gov/organization/dscb/obtaining/available plates.htm. […] The stock solutions were prepared in dimethyl sulfoxide (DMSO, Sigma-Aldrich, St. Louis, MO, cat. D2650), except for the platinum compounds which were prepared in saline (Quality Biological, Gaithersburg, MD, cat. 114-055-101), at 800-fold the tested concentration and stored at -70 degrees C prior to their use. All drugs and investigational agents were tested over a range starting from a high concentration at or near the clinical Cmax and decreasing in half-log increments. If the clinical Cmax for an agent had not been determined, the highest concentration tested was 10 microM (Table 1).
Cell Culture. All cells were maintained in an incubator at 37 degrees C and 5% CO2 with 95% humidity. The PDC lines were cultured according to standard operating procedures established by the NCI PDMR (https://pdmr.cancer.gov). Briefly, all PDCs were thawed and cultured in Matrigel-coated flasks prepared with a working solution of 1X Ham's F-12 nutrient mix, without supplementation (Invitrogen, Waltham, MA, cat. 11765054), 100 U/mL penicillin-streptomycin (Invitrogen, cat. 15140122), and 2.5% Matrigel (Corning Inc., Corning, NY, cat. 354248) for the first three passages. All PDCs were cultured in complete DMEM/F-12 media containing advanced DMEM/F-12 (Invitrogen, cat. 12634028), 4.9% defined fetal bovine serum, heat inactivated (HyClone Laboratories Inc., Logan, UT, cat. SH30070.03HI), 389 ng/mL hydrocortisone (Sigma-Aldrich, cat. H4001), 9.7 ng/mL human EGF recombinant protein (Invitrogen, cat. PHG0313), 23.4 microg/mL adenine (Sigma-Aldrich, cat. A2786), 97.3 U/mL penicillin-streptomycin (Invitrogen, cat. 15140122), 1.9 mM L-glutamine (Invitrogen, cat. 25030081), and 9.7 microM Y-27632 dihydrochloride (Tocris Bioscience, Bristol, United Kingdom, cat. 1254). The PDCs were cultured in complete DMEM/F12 media without 10 microM Y-27632 dihydrochloride for at least two passages prior to the screen. The established cell lines NCI-H1341 and […] were cultured in DMEM/F-12, HEPES (Invitrogen, cat. 11330032), 5% defined fetal bovine serum (HyClone Laboratories Inc., cat. SH30070.03), ITS premix universal culture supplement [insulin (5 microg/mL), transferrin (5 microg/mL), and selenious acid (5 ng/mL)] […]

[1] = second compound 0.1 µM, first compound 0.00316 µM
[2] = second compound 0.1 µM, first compound 0.01 µM
[3] = second compound 0.1 µM, first compound 0.0316 µM
[4] = second compound 0.1 µM, first compound 0.1 µM
[5] = second compound 0.316 µM, first compound 0.00316 µM
[6] = second compound 0.316 µM, first compound 0.01 µM
[7] = second compound 0.316 µM, first compound 0.0316 µM
[8] = second compound 0.316 µM, first compound 0.1 µM
[9] = second compound 1 µM, first compound 0.00316 µM
[10] = second compound 1 µM, first compound 0.01 µM
[11] = second compound 1 µM, first compound 0.0316 µM
[12] = second compound 1 µM, first compound 0.1 µM
[13] = second compound 3.16 µM, first compound 0.00316 µM
[14] = second compound 3.16 µM, first compound 0.01 µM
[15] = second compound 3.16 µM, first compound 0.0316 µM
[16] = second compound 3.16 µM, first compound 0.1 µM
[17] = second compound 10 µM, first compound 0.00316 µM
[18] = second compound 10 µM, first compound 0.01 µM
[19] = second compound 10 µM, first compound 0.0316 µM
[20] = second compound 10 µM, first compound 0.1 µM
[21] = second compound 0.1 µM, first compound 0.316 µM
[22] = second compound 0.1 µM, first compound 1 µM
[23] = second compound 0.1 µM, first compound 3.16 µM
[24] = second compound 0.1 µM, first compound 10 µM
[25] = second compound 0.316 µM, first compound 0.316 µM
[26] = second compound 0.316 µM, first compound 1 µM
[27] = second compound 0.316 µM, first compound 3.16 µM
[28] = second compound 0.316 µM, first compound 10 µM
[29] = second compound 1 µM, first compound 0.316 µM
[30] = second compound 1 µM, first compound 1 µM
[31] = second compound 1 µM, first compound 3.16 µM
[32] = second compound 1 µM, first compound 10 µM
[33] = second compound 3.16 µM, first compound 0.316 µM
[34] = second compound 3.16 µM, first compound 1 µM
[35] = second compound 3.16 µM, first compound 3.16 µM
[36] = second compound 3.16 µM, first compound 10 µM
[37] = second compound 10 µM, first compound 0.316 µM
[38] = second compound 10 µM, first compound 1 µM
[39] = second compound 10 µM, first compound 3.16 µM
[40] = second compound 10 µM, first compound 10 µM
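For viability, T/C in this document: compound exposure lasted 7 days; 100% = DMSO vehicle control growth.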

Row | IC50 (second compound 0.1 µM) | IC50 (second compound 0.316 µM) | IC50 (second compound 1 µM) | IC50 (second compound 3.16 µM) | IC50 (second compound 10 µM) | Compound | viability, T/C [3] | viability, T/C [4] | viability, T/C [7] | viability, T/C [8] | viability, T/C [11] | viability, T/C [12] | viability, T/C [15] | viability, T/C [16] | viability, T/C [19] | viability, T/C [20] | viability, T/C [21] | viability, T/C [22] | viability, T/C [25] | viability, T/C [26] | viability, T/C [29] | further results
1 | > 100 nM | > 100 nM | > 100 nM | 87.8 nM | 84.6 nM | CC[C@@]1(O)C(=O)OCc2c1cc1n(c2=O)Cc2cc3c(CN(C)C)c(O)ccc3nc2-1 + CC(CO)NC(=O)c1cc(-c2ccc(Cl)cc2)nn(-c2cnn(C)c2)c1=O | 69.7% | 51.7% | 69.5% | 58.6% | 75% | 57.3% | 65.9% | 47.8% | 70.5% | 46.5% |  |  |  |  |  | viability, T/C (second compound 0.1 µM, first compound 0.000316 µM): 102%; viability, T/C (second compound 0.1 µM, first compound 0.001 µM): 95.5%; viability, T/C [1]: 90.4%; viability, T/C [2]: 86.8%; viability, T/C (second compound 0.316 µM, first compound 0.000316 µM): 97.2%; viability, T/C (second compound 0.316 µM, first compound 0.001 µM): 98%; viability, T/C [5]: 92.9%; viability, T/C [6]: 80.6%; viability, T/C (second compound 1 µM, first compound 0.000316 µM): 101%; viability, T/C (second compound 1 µM, first compound 0.001 µM): 110%; viability, T/C [9]: 93.6%; viability, T/C [10]: 80.8%; viability, T/C (second compound 3.16 µM, first compound 0.000316 µM): 90.5%; viability, T/C (second compound 3.16 µM, first compound 0.001 µM): 97%; viability, T/C [13]: 91.4%; viability, T/C [14]: 78.2%; viability, T/C (second compound 10 µM, first compound 0.000316 µM): 100%; viability, T/C (second compound 10 µM, first compound 0.001 µM): 101%; viability, T/C [17]: 94.7%; viability, T/C [18]: 93.2%
2 | > 10000 nM | 8090 nM | > 10000 nM | 6630 nM | 7380 nM | COc1cc(C2c3cc4c(cc3C(OC3OC5COC(C)OC5C(O)C3O)C3COC(=O)C23)OCO4)cc(OC)c1O (stereo not given) + CC(CO)NC(=O)c1cc(-c2ccc(Cl)cc2)nn(-c2cnn(C)c2)c1=O | 111% | 117% | 95.4% | 102% | 109% | 104% | 103% | 102% | 105% | 98.8% | 80% | 62.9% | 85.6% | 67.8% | 81.9% | viability, T/C [23]: 66%; viability, T/C [24]: 50.9%; viability, T/C [27]: 72.8%; viability, T/C [28]: 44.6%; viability, T/C [30]: 62.6%; viability, T/C [31]: 60.5%; viability, T/C [32]: 51.8%; viability, T/C [33]: 80%; viability, T/C [34]: 74.5%; viability, T/C [35]: 59.9%; viability, T/C [36]: 44.5%; viability, T/C [37]: 81.7%; viability, T/C [38]: 73.5%; viability, T/C [39]: 59.7%; viability, T/C [40]: 46.4%
3 | 393 nM | 396 nM | 445 nM | 375 nM | 361 nM | COc1cccc2c1C(=O)c1c(O)c3c(c(O)c1C2=O)CC(O)(C(=O)CO)CC3OC1CC(N)C(O)C(C)O1 (stereo not given) + CC(CO)NC(=O)c1cc(-c2ccc(Cl)cc2)nn(-c2cnn(C)c2)c1=O | 89.7% | 80.7% | 83.9% | 79.3% | 85% | 87.3% | 75.8% | 79.4% | 88.9% | 87% | 58.7% | 16.1% | 58.1% | 17.5% | 64.8% | viability, T/C [23]: 3.94%; viability, T/C [24]: 3.84%; viability, T/C [27]: 4.59%; viability, T/C [28]: 3.12%; viability, T/C [30]: 14.5%; viability, T/C [31]: 3.33%; viability, T/C [32]: 3.66%; viability, T/C [33]: 55.9%; viability, T/C [34]: 13.1%; viability, T/C [35]: 4.03%; viability, T/C [36]: 3.23%; viability, T/C [37]: 56%; viability, T/C [38]: 3.3%; viability, T/C [39]: 1.46%; viability, T/C [40]: 3.96%
4 | > 1000 nM | > 1000 nM | > 1000 nM | > 1000 nM | > 1000 nM | Nc1ncn(C2CC(O)C(CO)O2)c(=O)n1 (stereo not given) + CC(CO)NC(=O)c1cc(-c2ccc(Cl)cc2)nn(-c2cnn(C)c2)c1=O | 84.9% | 77.1% | 84.3% | 78.4% | 85.3% | 81.8% | 87.3% | 75.2% | 92.3% | 81.8% | 78.7% | 70.4% | 71.9% | 72.4% | 72.3% | viability, T/C [1]: 92.5%; viability, T/C [2]: 89.9%; viability, T/C [5]: 88.4%; viability, T/C [6]: 95%; viability, T/C [9]: 85%; viability, T/C [10]: 104%; viability, T/C [30]: 72.2%; viability, T/C [13]: 95.4%; viability, T/C [14]: 90.7%; viability, T/C [33]: 70.1%; viability, T/C [34]: 68.9%; viability, T/C [17]: 97.5%; viability, T/C [18]: 99.6%; viability, T/C [37]: 80%; viability, T/C [38]: 77.1%
